Test results taken from paper PMC4349960, “[^18F]FE@SUPPY: a suitable PET tracer for the adenosine A3 receptor? An in vivo study in rodents” (European Journal of Nuclear Medicine and Molecular Imaging, 2015).
Like-named read-outs stand apart in the source and are kept apart here.

Legend:
[1] = target: human A3R; parameters: method as in PMID 10052977; conditions: read-out: Ki, affinity for human A3R; cited from earlier work
[2] = target: rat A3R; conditions: cited from earlier work
[3] = target: T1, A3R (Rattus norvegicus, UniProt P28647); assay: Small-animal PET in rats: baseline and A3R blocking scans; format: in vivo; conditions: blocker 2 mg/kg i.v. 30 min before tracer; for reduction in brain AUC of [^18F]FE@SUPPY as compared with DMSO administration: 0-60 min
T1 construct: Adult male Sprague-Dawley rats; from tissue; host or cells: living Sprague-Dawley rats, brain volume of interest in PET
T1 sequence (P28647 1-320): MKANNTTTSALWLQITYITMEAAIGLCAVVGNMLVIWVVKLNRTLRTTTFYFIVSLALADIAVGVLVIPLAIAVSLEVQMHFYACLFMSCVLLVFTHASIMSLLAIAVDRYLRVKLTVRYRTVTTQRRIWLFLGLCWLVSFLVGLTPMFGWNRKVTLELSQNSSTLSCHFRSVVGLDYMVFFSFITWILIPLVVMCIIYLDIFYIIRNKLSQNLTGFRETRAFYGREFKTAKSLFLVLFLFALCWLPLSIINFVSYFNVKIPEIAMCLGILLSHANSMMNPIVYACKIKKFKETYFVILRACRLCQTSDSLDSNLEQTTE
Text: A microPET Focus220 scanner (Siemens, Medical Solutions) was used for the experiments. It has 168 detector modules providing a 7.6-cm axial and 22-cm transaxial field of view. The resolution of the reconstructed images (filtered back projection) was 1.3 mm (full-width at half-maximum) in the central field of view and remained under 2 mm within the central 5 cm diameter field of view. For PET imaging two groups of animals (rats and xenografted mice) were investigated. Rats were divided into four groups. The first group received vehicle (dimethyl sulphoxide, DMSO) intravenously via a lateral tail vein 30 min prior to radiotracer administration (three animals, 14.3 – 70.1 MBq, 0.2604 ± 0.06 μg). The second group received MRS1523 – a selective A3R antagonist – at a dose of 2 mg/kg body weight (dissolved in DMSO, 4 mg/mL) intravenously via a tail vein 30 min prior to radiotracer administration (three animals, 18.8 – 59.1 MBq, 0.3443 ± 0.05 μg). The third group received unlabelled title compound FE@SUPPY (dissolved in DMSO, 4 mg/mL) at a dose of 2 mg/kg 30 min before tracer administration (three animals, 9.7 – 16.1 MBq, 0.3926 ± 0.04 μg). In the final study group, the effect of P-glycoprotein inhibition was assessed by intravenous administration of 15 mg/kg TQD (freshly dissolved on each experimental day in 2.5 % aqueous dextrose solution and injected intravenously via a tail vein at a volume of 3 mL/kg over 1 min) 60 min prior to tracer administration (three animals, 13.9 – 26.8 MBq, 0.7451 ± 0.11 μg).
Anaesthetized animals were positioned in the imaging chamber of the microPET scanner, which was kept at 38 °C throughout the experiment. A stereotactic holder attached to the bed, consisting of ear plugs and a tooth bar, was used to fix the animal's head to ensure a reproducible position during the PET studies. [^18F]FE@SUPPY (27.91 ± 13.82 MBq) dissolved in 0.48 ± 0.22 mL phosphate-buffered saline (pH 7.4) was administered as a bolus via a tail vein. Dynamic PET imaging was performed over 60 min in all animals. At the end of the PET scan the animals were killed, a terminal blood sample was collected and whole brains were removed for testing of metabolite stability.
For all PET scans (rats and xenografted mice), list mode data were acquired with an energy window of 350 – 750 keV (rats) or 250 – 750 keV (mice) and a 6-ns timing window. Before each PET scan, a transmission scan using a ^57Co point source was recorded over 10 min. The PET data from the 60-min dynamic scans were sorted into three-dimensional sinograms according to the following frame sequence: 6 × 20 s, 5 × 60 s, 4 × 120 s, 3 × 300 s and 3 × 600 s. For the 90-min scans (in the xenografted mice) the following frame sequence was used: 8 × 5 s, 2 × 10 s, 2 × 30 s, 3 × 60 s, 2 × 150 s, 2 × 300 s, 4 × 600 s and 2 × 900 s. PET images were reconstructed by Fourier rebinning followed by filtered back projection with a ramp filter. The resulting voxel size was 0.6 × 0.6 × 0.8 mm for rats or 0.4 × 0.4 × 0.8 mm for mice. The standard data correction protocol (normalization, attenuation and decay correction) was applied to the data. A calibration factor for converting units of microPET images into absolute radioactivity concentration units was first generated by imaging a phantom filled with a known concentration of [^18F]FDG.
Rat brains were manually outlined on multiple planes of the PET summation images using the image analysis software PMOD 3.1 (Pmod Ltd, Zürich, Switzerland) or Amide. Volumes of interest in the brain or solid tissue mass (xenografts) were transferred to the PET images of the individual time frames and time–activity curves (TACs) expressed in units of kilobecquerels per millilitre were calculated. To facilitate comparison of TACs of different animals, radioactivity concentrations were normalized to dose and weight and expressed as standardized uptake value (SUV, %ID/cm^3 or %ID/g). […]

[4] = Ex vivo stability/metabolism in rat plasma and brain after pretreatment; parameters: species or system rats; conditions: rats, after blocking treatment
Method: To determine the influence of the four treatments (vehicle, MRS1523, FE@SUPPY, TQD) on uptake of [^18F]FE@SUPPY, stability was assessed in plasma and brain 60 min after tracer injection. Final blood samples (3 mL) were collected in heparin-buffered tubes, rat brains were washed with ice-cold water and homogenized in 0.9 % aqueous NaCl solution (1 mL) using an IKA T10 basic Ultra-turrax (IKA Laboratory Equipment, Staufen, Germany). […] Sample clean-up was performed by vortexing plasma with the equivalent amount of methanol/acetonitrile (9:1) for 1 min and by subsequent ultracentrifugation (10,000 rpm, 5 min) to remove precipitated proteins. The supernatants obtained were analysed by radio-HPLC (Agilent, Boeblingen, Germany) equipped with a series 1100 autosampler, a series 1200 quaternary pump, a series 1200 diode array detector and a lead-shielded BGO radiodetector. A Chromolith® Performance RP-18e (100 × 4.6 mm, 5 μm) column with a Chromolith® Performance RP-18e (4 x4 mm, 5 μm) precolumn was eluted at a flow rate of 2 mL/min using a mobile phase consisting of 60 % acetonitrile and 40 % water/acetic acid 97.5:2.5 and 32 mM ammonium acetate, pH 3.5. UV detection was performed at a wavelength of 254 nm. The retention time of [^18F]FE@SUPPY was 4.6 – 5.9 min (UV detection and radiodetection).

[5] = test system: human A1R; parameters: method as in earlier work; conditions: cited from earlier work
[6] = test system: human A2AR; parameters: method as in earlier work; conditions: cited from earlier work
[7] = target: T2, CHO cells expressing the human A3R (CHO-A3) (Homo sapiens, UniProt P0DMS8); assay: Xenograft mouse model PET (CHO vs CHO-A3 solid tissue masses); format: in vivo, mice; conditions: xenografted mice, static image 1 h after injection
T2 construct: Karl-Norbert Klotz (University of Würzburg); host or cells: CHO cells stably transfected (CHO-A3), grown as subcutaneous masses in NMRI-nu/nu mice
T2 sequence (P0DMS8 1-318): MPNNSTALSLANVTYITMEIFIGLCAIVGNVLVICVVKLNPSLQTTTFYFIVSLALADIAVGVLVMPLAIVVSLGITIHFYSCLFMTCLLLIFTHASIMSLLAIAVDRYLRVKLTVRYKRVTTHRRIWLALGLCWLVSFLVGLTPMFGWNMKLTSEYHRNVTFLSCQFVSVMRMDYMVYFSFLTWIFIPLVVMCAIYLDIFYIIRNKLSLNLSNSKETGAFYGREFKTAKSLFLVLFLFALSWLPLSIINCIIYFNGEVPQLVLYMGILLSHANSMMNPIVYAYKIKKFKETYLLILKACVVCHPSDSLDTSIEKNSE
Method: Adult male Sprague-Dawley rats (Him:OFA; Animal Research Institute, Himberg, Austria) weighing 307 ± 35 g were kept under controlled environmental conditions (22 ± 1 °C, 40 – 70 % humidity, 12-h light/dark cycle) with free access to standard laboratory animal diet and tap water. Before being used in the experiments, the animals were allowed to adapt to the new conditions for at least a week. Prior to each experiment, the animals were placed in a chamber containing 2.5 % isoflurane in oxygen. When unconscious, the animals were taken from the chamber and kept under anaesthesia with 1.8 % isoflurane administered via a mask during the whole experiment. Pathogen-free, female NMRI-nu/nu mice (Taconic, Denmark) weighing 28.1 ± 0.8 g were housed under sterile conditions. Mice were injected subcutaneously into both upper flanks with 100 μL of a cell suspension in phosphate-buffered saline containing 10^6 CHO cells (right side) or 10^6 CHO-A3 cells (left side). During the imaging periods of 60 or 90 min (rats or xenografted mice, respectively) the isoflurane level was adjusted depending on the depth of anaesthesia. A humidifier was used to moisten the gas mixture before supplying it to the animal.
Around 17 days after cell inoculation, animals in the xenograft group were positioned in the imaging chamber and a dynamic 90-min PET scan was initiated at the start of [^18F]FE@SUPPY injection (2.21 ± 0.75 MBq dissolved in 100 μl physiological saline, pH 7.4; three animals) via a tail vein under isoflurane anaesthesia (2 %). Additionally, in this group, [^18F]FDG PET was performed 1 day prior to the [^18F]FE@SUPPY experiments. […] In brief, mice were deprived of food for 6 – 8 h before [^18F]FDG injection via a tail vein. Mice had access to drinking water at all times. Body warming was achieved by placing the entire cage on a heating pad kept at 38 °C. Warming was started around 30 min before tracer injection and was continued throughout the uptake and imaging period. [^18F]FDG (6.03 ± 1.31 MBq dissolved in 100 μL physiological saline, pH 7.4; three animals) was injected via a tail vein under isoflurane anaesthesia (2 %). Mice were kept under isoflurane anaesthesia throughout the whole uptake and imaging period. A 10-min static image was acquired at 1 h after [^18F]FDG injection. […]
For all PET scans (rats and xenografted mice), list mode data were acquired with an energy window of 350 – 750 keV (rats) or 250 – 750 keV (mice) and a 6-ns timing window. Before each PET scan, a transmission scan using a ^57Co point source was recorded over 10 min. […] A calibration factor for converting units of microPET images into absolute radioactivity concentration units was first generated by imaging a phantom filled with a known concentration of [^18F]FDG. […]

[8] = test system: rat A3R; assay: Affinity for rat A3R (literature binding data); conditions: ratio of Ki values
[9] = read-out: Ki, affinity for rat A3R

Molecule	reduction in peak brain activity of [^18F]FE@SUPPY as compared with DMSO administration [3] [%]	reduction in brain AUC of [^18F]FE@SUPPY as compared with DMSO administration [3] [%]	reduction in plasma concentration of [^18F]FE@SUPPY at 60 min after injection [4] [%]	Ki [2, 9] [nM]	other results
CCSC(=O)c1c(CC)nc(-c2ccccc2)c(C(=O)OCCF)c1CC [[^18F]FE@SUPPY, 5-(2-[^18F]fluoroethyl)-2,4-diethyl-3-(ethylsulfanylcarbonyl)-6-phenylpyridine-5-carboxylate]	–	–	–	–	Ki [1]: 4.2 nM; Ki ([2]; read-out: Ki, affinity towards rat A3R): 600 nM
CCSC(=O)c1c(CC)nc(-c2ccccc2)c(C(=O)OCCF)c1CC [FE@SUPPY]	16.7	5.4	27	600	affinity for human A1R [5]: micromolar range; affinity for human A2AR [6]: micromolar range
[^18F]FDG [reference compound]	–	–	–	–	uptake in CHO tissue mass [7]: 5.4 %ID/g; uptake in CHO-A3 tissue mass [7]: 6.3 %ID/g
CCCOC(=O)c1c(-c2ccccc2)nc(CC)c(C(=O)SCC)c1CCC [MRS1523, reference compound]	34.1	27.6	36	113	fold higher affinity of MRS1523 for rat A3R compared with FE@SUPPY [8]: 5.31 fold
